In the oligonucleotide strings, read from the 5' end, every base follows the letter of its sugar. An asterisk marks phosphorothioate; unmarked linkages are phosphodiester. Other units and linkages are bracketed, terminal groups are in braces. A string of capitals states the bases alone. {NAG37} = tridentate N-acetyl-galactosamine targeting ligand, structure (NAG37)s; [invAb] = inverted abasic unit; m = 2'-O-methyl; f = 2'-fluoro
What was measured:
ANGPTL3 gene [1] = assay: Example 7: serum total cholesterol in mice; format: in vivo, C57bl/6 mice; design: key: ratio: (level/pre-treatment day -1 level) ÷ mean of D5W control group
Experimental: (§1) To further assess the in vivo activity of additional ANGPTL3 RNAi agents that are designed to target position 304 on the ANGPTL3 gene, six- to eight-week-old female C57bl/6 mice were used. Pre-dose serum samples were taken at day −1 after a four hour fast. At day 1, each mouse was given a single subcutaneous administration of 200 μl containing 0.5 mg/kg (mpk) of an ANGPTL3 RNAi agent in D5W (dextrose in 5% water), or control (D5W) with no RNAi agent, according to the dosing groups recited in Table 31.
(§2) Each of the RNAi agents included a modified sequence and an N-acetyl-galactosamine-containing targeting ligand conjugated to the 5′ terminal end of the sense strand. (See Tables 3, 4, and 5 for modified sequences and targeting ligand structures). The injections were performed between the skin and muscle (i.e. subcutaneous injections) into the loose skin over the neck and shoulder area. Three (3) mice in each group were tested (n=3). Serum was collected on days 8, 15, 22, and 29. Mice were fasted for four hours prior to each collection. ANGPTL3 protein levels in serum were measured by ELISA assay (R&D Systems), according to the manufacturer's recommendations. Triglycerides, total cholesterol, high-density lipoprotein (HDL), and low-density lipoprotein (LDL) in serum were measured on a Cobas® Integra 400 (Roche Diagnostics), according to the manufacturer's recommendations.
(§3) The ANGPTL3 protein levels, triglyceride levels, total cholesterol levels, HDL levels, and LDL levels for each animal were normalized. For normalization, the level of ANGPTL3 protein, triglyceride, HDL, and total cholesterol, respectively, for each animal at a time point, was divided by the pre-treatment level of expression in that animal (in this case at day −1) to determine the ratio of expression “normalized to pre-treatment.” Expression at a specific time point was then normalized to the D5W control group by dividing the “normalized to pre-treatment” ratio for an individual animal by the mean “normalized to pretreatment” ratio of all mice in the D5W control group.

ANGPTL3 protein [2] = assay: Example 7: serum ANGPTL3 protein by ELISA in mice; format: in vivo, C57bl/6 mice; design: key: ratio: (level/pre-treatment day -1 level) ÷ mean of D5W control group
Experimental: as §1, §2, §3

ANGPTL3 gene [3] = assay: Example 7: serum triglycerides in mice; format: in vivo, C57bl/6 mice; design: key: ratio: (level/pre-treatment day -1 level) ÷ mean of D5W control group
Experimental: as §1, §2, §3

ANGPTL3 gene [4] = assay: Example 7: serum LDL in mice; format: in vivo; design: key: ratio: (level/pre-treatment day -1 level) ÷ mean of D5W control group; settings: 0.5 mg/kg single SC injection day 1, female C57bl/6 mice, n=3, ratio to D5W control
Experimental: as §1, §2, §3

ANGPTL3 gene [5] = assay: Example 7: serum HDL in mice; format: in vivo; design: key: ratio: (level/pre-treatment day -1 level) ÷ mean of D5W control group; settings: 0.5 mg/kg single SC injection day 1, female C57bl/6 mice, n=3, ratio to D5W control
Experimental: as §1, §2, §3

ANGPTL3 gene [6] = assay: Example 4: serum LDL in mice; format: in vivo, C57bl/6 mice; settings: for Avg LDL, normalized to pre-treatment and control: 1.0 mg/kg single SC injection on day 1, serum, n=3
Experimental: as §1, with “To” for “To further”, “of” for “of additional”, “additional positions” for “position 304”, “containing either 1 mg/kg (mpk) or” for “containing”, “17.” for “31.”
as §2, with “22, 29,” for “22,”, “day 43 (Groups 1-3, 9, and 11-13 only).” for “29.”, “Triglycerides,” for “Triglycerides, total cholesterol,”, “total cholesterol” for “low-density lipoprotein (LDL)”
(§4) The ANGPTL3 protein levels, triglyceride levels, HDL levels, and total cholesterol levels for each animal were normalized. For normalization, the level of ANGPTL3 protein, triglyceride, HDL, and total cholesterol, respectively, for each animal at a time point, was divided by the pre-treatment level of expression in that animal (in this case at day −1) to determine the ratio of expression “normalized to pre-treatment.” Expression at a specific time point was then normalized to the D5W control group by dividing the “normalized to pre-treatment” ratio for an individual animal by the mean “normalized to pretreatment” ratio of all mice in the D5W control group.

ANGPTL3 gene [7] = assay: Example 4: serum total cholesterol in mice; format: in vivo, C57bl/6 mice
Experimental: as §1, with “To” for “To further”, “of” for “of additional”, “additional positions” for “position 304”, “containing either 1 mg/kg (mpk) or” for “containing”, “17.” for “31.”
as §2, with “22, 29,” for “22,”, “day 43 (Groups 1-3, 9, and 11-13 only).” for “29.”, “Triglycerides,” for “Triglycerides, total cholesterol,”, “total cholesterol” for “low-density lipoprotein (LDL)”
as §4

ANGPTL3 protein [8] = assay: Example 4: serum ANGPTL3 protein by ELISA in mice; format: in vivo, C57bl/6 mice; settings: for Avg ANGPTL3 (Average ANGPTL3 Protein Normalized to Pre-Treatment and Control): 1.0 mg/kg single subcutaneous dose on day 1, serum, female C57bl/6 mice
Experimental: as §1, with “To” for “To further”, “of” for “of additional”, “additional positions” for “position 304”, “containing either 1 mg/kg (mpk) or” for “containing”, “17.” for “31.”
as §2, with “22, 29,” for “22,”, “day 43 (Groups 1-3, 9, and 11-13 only).” for “29.”, “Triglycerides,” for “Triglycerides, total cholesterol,”, “total cholesterol” for “low-density lipoprotein (LDL)”
as §4

ANGPTL3 gene [9] = assay: Example 4: serum HDL in mice; format: in vivo, C57bl/6 mice
Experimental: as §1, with “To” for “To further”, “of” for “of additional”, “additional positions” for “position 304”, “containing either 1 mg/kg (mpk) or” for “containing”, “17.” for “31.”
as §2, with “22, 29,” for “22,”, “day 43 (Groups 1-3, 9, and 11-13 only).” for “29.”, “Triglycerides,” for “Triglycerides, total cholesterol,”, “total cholesterol” for “low-density lipoprotein (LDL)”
as §4

ANGPTL3 gene [10] = assay: Example 4: serum triglycerides in mice; format: in vivo
Experimental: as §1, with “To” for “To further”, “of” for “of additional”, “additional positions” for “position 304”, “containing either 1 mg/kg (mpk) or” for “containing”, “17.” for “31.”
as §2, with “22, 29,” for “22,”, “day 43 (Groups 1-3, 9, and 11-13 only).” for “29.”, “Triglycerides,” for “Triglycerides, total cholesterol,”, “total cholesterol” for “low-density lipoprotein (LDL)”
as §4

[11] = Day 8, 0.5 mg/kg single SC injection on day 1, n=3
[12] = Day 15, 0.5 mg/kg single SC injection on day 1, n=3
[13] = Day 22, 0.5 mg/kg single SC injection on day 1, n=3
[14] = Day 29, 0.5 mg/kg single SC injection on day 1, n=3
[15] = Day 8, 1.0 mg/kg single SC injection on day 1, n=3
[16] = Day 15, 1.0 mg/kg single SC injection on day 1, n=3
[17] = Day 22, 1.0 mg/kg single SC injection on day 1, n=3
[18] = Day 29, 1.0 mg/kg single SC injection on day 1, n=3
[19] = Day 43, 1.0 mg/kg single SC injection on day 1, n=3

## AD05777: RNAi agent duplex: antisense AM07235-AS, sense AM07610-SS (antisense UACUGAUCAAAUAUGUUGAGC; sense GCUCAACNUNUUUGAUCAGUA; (NAG37)s GalNAc ligand; RNAi agent antisense strand modified sequence; RNAi agent sense strand modified sequence; modified_base 8, 10 n = 2′-O-methyl-2-aminoadenosine-3′-phosphate)
ANGPTL3 gene [1]; [11]
  Avg Total Chol, normalized to pre-treatment and control: 0.797
ANGPTL3 gene [1]; [12]
  Avg Total Chol, normalized to pre-treatment and control: 0.800
ANGPTL3 gene [1]; [13]
  Avg Total Chol, normalized to pre-treatment and control: 0.794
ANGPTL3 gene [1]; [14]
  Avg Total Chol, normalized to pre-treatment and control: 0.995
ANGPTL3 protein [2]; [11]
  Avg ANGPTL3, normalized to pre-treatment and control: 0.297
ANGPTL3 protein [2]; [12]
  Avg ANGPTL3, normalized to pre-treatment and control: 0.246
ANGPTL3 protein [2]; [13]
  Avg ANGPTL3, normalized to pre-treatment and control: 0.257
ANGPTL3 protein [2]; [14]
  Avg ANGPTL3, normalized to pre-treatment and control: 0.345
ANGPTL3 gene [3]; [11]
  Avg TG, normalized to pre-treatment and control: 0.755
ANGPTL3 gene [3]; [12]
  Avg TG, normalized to pre-treatment and control: 0.702
ANGPTL3 gene [3]; [13]
  Avg TG, normalized to pre-treatment and control: 0.700
ANGPTL3 gene [3]; [14]
  Avg TG, normalized to pre-treatment and control: 0.648
ANGPTL3 gene [4]; Day 8
  Avg LDL, normalized to pre-treatment and control: 0.886
ANGPTL3 gene [4]; Day 15
  Avg LDL, normalized to pre-treatment and control: 0.869
ANGPTL3 gene [4]; Day 22
  Avg LDL, normalized to pre-treatment and control: 0.966
ANGPTL3 gene [4]; Day 29
  Avg LDL, normalized to pre-treatment and control: 1.224
ANGPTL3 gene [5]; Day 8
  Avg HDL, normalized to pre-treatment and control: 0.784
ANGPTL3 gene [5]; Day 15
  Avg HDL, normalized to pre-treatment and control: 0.768
ANGPTL3 gene [5]; Day 22
  Avg HDL, normalized to pre-treatment and control: 0.801
ANGPTL3 gene [5]; Day 29
  Avg HDL, normalized to pre-treatment and control: 1.008

## AD05487: RNAi agent duplex: antisense AM07233-AS, sense AM07232-SS (antisense mU*fA*mC*fUmGfAmUfCmAfAmAfUmAfUmGfUmUfGmAfG*mU; sense {NAG37}*[invAb]*mAmCmUmCmAmAmCmAfUfAfUmUmUmGmAmUmCmAmGmUmA*[invAb])
ANGPTL3 gene [6]; Day 8
  Avg LDL, normalized to pre-treatment and control: 0.916
ANGPTL3 gene [6]; Day 15
  Avg LDL, normalized to pre-treatment and control: 1.125
ANGPTL3 gene [6]; Day 22
  Avg LDL, normalized to pre-treatment and control: 0.845
ANGPTL3 gene [6]; Day 29
  Avg LDL, normalized to pre-treatment and control: 0.744
ANGPTL3 gene [6]; Day 43
  Avg LDL, normalized to pre-treatment and control: 0.989
ANGPTL3 gene [6]; day 29, single 1 mg/kg subcutaneous, C57bl/6 mice
  LDL levels reduced: ~20%
ANGPTL3 gene [7]; [15]
  Avg Total Chol, normalized to pre-treatment and control: 0.728
ANGPTL3 gene [7]; [16]
  Avg Total Chol, normalized to pre-treatment and control: 0.944
ANGPTL3 gene [7]; [17]
  Avg Total Chol, normalized to pre-treatment and control: 0.697
ANGPTL3 gene [7]; [18]
  Avg Total Chol, normalized to pre-treatment and control: 0.560
ANGPTL3 gene [7]; [19]
  Avg Total Chol, normalized to pre-treatment and control: 0.923
ANGPTL3 protein [8]; Day 8
  Avg ANGPTL3 (Average ANGPTL3 Protein Normalized to Pre-Treatment and Control): 0.173
ANGPTL3 protein [8]; Day 15
  Avg ANGPTL3 (Average ANGPTL3 Protein Normalized to Pre-Treatment and Control): 0.170
ANGPTL3 protein [8]; Day 22
  Avg ANGPTL3 (Average ANGPTL3 Protein Normalized to Pre-Treatment and Control): 0.138
ANGPTL3 protein [8]; Day 29
  Avg ANGPTL3 (Average ANGPTL3 Protein Normalized to Pre-Treatment and Control): 0.226
ANGPTL3 protein [8]; Day 43
  Avg ANGPTL3 (Average ANGPTL3 Protein Normalized to Pre-Treatment and Control): 0.477
ANGPTL3 protein [8]; day 15, single 1 mg/kg subcutaneous, C57bl/6 mice
  ANGPTL3 protein normalized to pre-treatment and control: 0.170
ANGPTL3 protein [8]; day 22, single 1 mg/kg subcutaneous, C57bl/6 mice
  ANGPTL3 protein normalized to pre-treatment and control: 0.138
ANGPTL3 protein [8]; days 15 and 22, single 1 mg/kg subcutaneous, C57bl/6 mice
  knockdown of ANGPTL3 protein: ~75%
ANGPTL3 gene [9]; [15]
  Avg HDL, normalized to pre-treatment and control: 0.716
ANGPTL3 gene [9]; [16]
  Avg HDL, normalized to pre-treatment and control: 0.918
ANGPTL3 gene [9]; [17]
  Avg HDL, normalized to pre-treatment and control: 0.658
ANGPTL3 gene [9]; [18]
  Avg HDL, normalized to pre-treatment and control: 0.745
ANGPTL3 gene [9]; [19]
  Avg HDL, normalized to pre-treatment and control: 0.934
ANGPTL3 gene [10]; Day 8, 1.0 mg/kg single subcutaneous dose on day 1, female C57bl/6 mice
  Avg TG (Average Triglycerides Normalized to Pre-Treatment and Control): 0.776
ANGPTL3 gene [10]; Day 15, 1.0 mg/kg single subcutaneous dose on day 1, female C57bl/6 mice
  Avg TG (Average Triglycerides Normalized to Pre-Treatment and Control): 0.912
ANGPTL3 gene [10]; Day 22, 1.0 mg/kg single subcutaneous dose on day 1, female C57bl/6 mice
  Avg TG (Average Triglycerides Normalized to Pre-Treatment and Control): 0.761
ANGPTL3 gene [10]; Day 29, 1.0 mg/kg single subcutaneous dose on day 1, female C57bl/6 mice
  Avg TG (Average Triglycerides Normalized to Pre-Treatment and Control): 0.556
ANGPTL3 gene [10]; Day 43, 1.0 mg/kg single subcutaneous dose on day 1, female C57bl/6 mice
  Avg TG (Average Triglycerides Normalized to Pre-Treatment and Control): 0.757

Reference: patent US12729377B2, “RNAi agents and compositions for inhibiting expression of angiopoietin-like 3 (ANGPTL3), and methods of use” (Arrowhead Pharmaceuticals, Inc., priority 2017, dated 2026)
